Results published in US20220402950A1, “SUBSTITUTED BENZIMIDAZOLES AS PAD4 INHIBITORS” (BRISTOL-MYERS SQUIBB COMPANY, priority 2018, published 2022).

Target: human PAD4 (hPAD4) (Homo sapiens, UniProt Q9UM07)
Experiment: RFMS Human PAD4 Functional Assay
Type: biochemical
Settings: hPAD4 RFMS IC50, human PAD4, rapid-fire mass spectrum (RFMS) assay; 5 nM hPAD4, 250 μM BAEE
Method in brief: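 RapidFire ESI-MS quantification, normalised to a modified-citrulline internal standard, after phenyl glyoxal (final 4 mM) derivatisation of the TCA-quenched reaction. The enzyme (10 nM) sat 30 min with compound (up to 50 μM final) before 500 μM BAEE (as added) started a 90 min, 37 °C reaction. Buffer: HEPES pH 7.5, 50 μM calcium, 5 μM TPEN.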

Sequence of human PAD4 (hPAD4) (Q9UM07 whole entry): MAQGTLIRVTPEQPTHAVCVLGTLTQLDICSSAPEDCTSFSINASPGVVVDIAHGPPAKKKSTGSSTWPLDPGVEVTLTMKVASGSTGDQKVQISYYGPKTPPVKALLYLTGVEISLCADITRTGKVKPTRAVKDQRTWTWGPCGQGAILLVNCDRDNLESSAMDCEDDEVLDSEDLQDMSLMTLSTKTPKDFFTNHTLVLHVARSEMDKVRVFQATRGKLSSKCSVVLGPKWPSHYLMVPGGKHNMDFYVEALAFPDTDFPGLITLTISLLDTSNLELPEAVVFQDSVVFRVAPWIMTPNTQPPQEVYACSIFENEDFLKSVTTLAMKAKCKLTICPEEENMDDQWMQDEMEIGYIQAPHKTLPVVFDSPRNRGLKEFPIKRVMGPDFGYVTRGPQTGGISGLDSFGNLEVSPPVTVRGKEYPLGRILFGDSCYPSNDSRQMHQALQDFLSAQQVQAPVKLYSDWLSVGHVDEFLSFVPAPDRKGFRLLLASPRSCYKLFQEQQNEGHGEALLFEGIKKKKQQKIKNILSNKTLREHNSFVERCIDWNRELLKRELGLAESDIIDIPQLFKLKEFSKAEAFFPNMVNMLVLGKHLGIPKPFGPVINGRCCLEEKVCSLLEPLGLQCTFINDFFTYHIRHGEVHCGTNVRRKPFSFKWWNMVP

Point of comparison: COc1cc(C(=O)N2C[C@H]3CC[C@@H]2[C@@H]3N)cc2nc(-c3cc4cccc(C5CN(C(=O)CCC(=O)O)C5)c4n3CC3CC3)n(C)c12 [Example 68, 4-[3-(2-{5-[(1R,4R,7R)-7-amino-2-azabicyclo[2.2.1]heptane-2-carbonyl]-7-methoxy-1-methyl-1H-1,3-benzodiazol-2-yl}-1-(cyclopropylmethyl)-1H-indol-7-yl)azetidin-1-yl]-4-oxobutanoic acid], IC50 170 nM. Against it:
- COc1cc(C(=O)N2C[C@H]3CC[C@@H]2[C@@H]3N)cc2nc(-c3cc4cccc(CC5CCOCC5)c4n3CC3CC3)n(C)c12 [Example 31, (1R,4R,7R)-2-{2-[1-(cyclopropylmethyl)-7-[(oxan-4-yl)methyl]-1H-indol-2-yl]-7-methoxy-1-methyl-1H-1,3-benzodiazole-5-carbonyl}-2-azabicyclo[2.2.1]heptan-7-amine] — within 1.5-fold, 198 nM
- COc1cc(C(=O)N2C[C@H]3CC[C@@H]2[C@@H]3N)cc2nc(-c3cc4cccc(CCC5CCCNC5)c4n3CC3CC3)n(C)c12 (stereo partly drawn) [Example 32, (1R,4R,7R)-2-{2-[1-(cyclopropylmethyl)-7-[2-(piperidin-3-yl)ethyl]-1H-indol-2-yl]-7-methoxy-1-methyl-1H-1,3-benzodiazole-5-carbonyl}-2-azabicyclo[2.2.1]heptan-7-amine] — 5.3-fold lower, 32 nM
- COc1cc(C(=O)N2C[C@H]3CC[C@@H]2[C@@H]3N)cc2nc(-c3cc4cccc(CCc5c(C)n[nH]c5C)c4n3CC3CC3)n(C)c12 [Example 33, (1R,4R,7R)-2-{2-[1-(cyclopropylmethyl)-7-[2-(3,5-dimethyl-1H-pyrazol-4-yl)ethyl]-1H-indol-2-yl]-7-methoxy-1-methyl-1H-1,3-benzodiazole-5-carbonyl}-2-azabicyclo[2.2.1]heptan-7-amine] — within 1.5-fold, 129 nM
- COc1cc(C(=O)N2C[C@H]3CC[C@@H]2[C@@H]3N)cc2nc(-c3cc4cccc(C5CCCOC5)c4n3CC3CC3)n(C)c12 (stereo partly drawn) [Example 34, (1R,4R,7R)-2-{2-[1-(cyclopropylmethyl)-7-(oxan-3-yl)-1H-indol-2-yl]-7-methoxy-1-methyl-1H-1,3-benzodiazole-5-carbonyl}-2-azabicyclo[2.2.1]heptan-7-amine] — 1.8-fold lower, 94 nM
- COc1cc(C(=O)N2C[C@H]3CC[C@@H]2[C@@H]3N)cc2nc(-c3cc4cccc(CCO)c4n3CC3CC3)n(C)c12 [Example 35, 2-(2-{5-[(1R,4R,7R)-7-amino-2-azabicyclo[2.2.1]heptane-2-carbonyl]-7-methoxy-1-methyl-1H-1,3-benzodiazol-2-yl}-1-(cyclopropylmethyl)-1H-indol-7-yl)ethan-1-ol] — 1.7-fold lower, 102 nM
- COc1cc(C(=O)N2C[C@H]3CC[C@@H]2[C@@H]3N)cc2nc(-c3cc4cccc(CC5CCCCO5)c4n3CC3CC3)n(C)c12 (stereo partly drawn) [Example 36, (1R,4R,7R)-2-{2-[1-(cyclopropylmethyl)-7-[(oxan-2-yl)methyl]-1H-indol-2-yl]-7-methoxy-1-methyl-1H-1,3-benzodiazole-5-carbonyl}-2-azabicyclo[2.2.1]heptan-7-amine] — within 1.5-fold, 199 nM
- COc1cc(C(=O)N2C[C@H]3CC[C@@H]2[C@@H]3N)cc2nc(-c3cc4cccc(C5CCCN(C(C)=O)C5)c4n3CC3CC3)n(C)c12 (stereo partly drawn) [Example 38, 1-[3-(2-{5-[(1R,4R,7R)-7-amino-2-azabicyclo[2.2.1]heptane-2-carbonyl]-7-methoxy-1-methyl-1H-1,3-benzodiazol-2-yl}-1-(cyclopropylmethyl)-1H-indol-7-yl)piperidin-1-yl]ethan-1-one] — 2.3-fold lower, 73 nM
- COc1cc(C(=O)N2C[C@H]3CC[C@@H]2[C@@H]3N)cc2nc(-c3cc4cccc(C5CCCN(C(N)=O)C5)c4n3CC3CC3)n(C)c12 (stereo partly drawn) [Example 39, 3-(2-{5-[(1R,4R,7R)-7-amino-2-azabicyclo[2.2.1]heptane-2-carbonyl]-7-methoxy-1-methyl-1H-1,3-benzodiazol-2-yl}-1-(cyclopropylmethyl)-1H-indol-7-yl)piperidine-1-carboxamide] — 3.3-fold lower, 51 nM
- COc1cc(C(=O)N2C[C@H]3CC[C@@H]2[C@@H]3N)cc2nc(-c3cc4cccc(C5CN(C(N)=O)C5)c4n3CC3CC3)n(C)c12 [Example 66, 3-(2-{5-[(1R,4R,7R)-7-amino-2-azabicyclo[2.2.1]heptane-2-carbonyl]-7-methoxy-1-methyl-1H-1,3-benzodiazol-2-yl}-1-(cyclopropylmethyl)-1H-indol-7-yl)azetidine-1-carboxamide] — 5.7-fold lower, 30 nM
- COc1cc(C(=O)N2C[C@H]3CC[C@@H]2[C@@H]3N)cc2nc(-c3cc4cccc(C5CN(C(=O)C(C)(C)C)C5)c4n3CC3CC3)n(C)c12 [Example 67, 1-[3-(2-{5-[(1R,4R,7R)-7-amino-2-azabicyclo[2.2.1]heptane-2-carbonyl]-7-methoxy-1-methyl-1H-1,3-benzodiazol-2-yl}-1-(cyclopropylmethyl)-1H-indol-7-yl)azetidin-1-yl]-2,2-dimethylpropan-1-one] — within 1.5-fold, 189 nM

Same assay, conditions: human PAD4, rapid-fire mass spectrum (RFMS) assay; 5 nM hPAD4, 250 μM BAEE; read-out: hPAD4 RFMS IC50

Point of comparison: COc1cc(C(=O)N2C[C@H](N)C[C@@H](F)C2)cc2nc(-c3cc4cccc(C5CN(C(C)=O)C5)c4n3CC3CC3)n(C)c12 [Example 41, 1-[3-(2-{5-[(3R,5R)-3-amino-5-fluoropiperidine-1-carbonyl]-7-methoxy-1-methyl-1H-1,3-benzodiazol-2-yl}-1-(cyclopropylmethyl)-1H-indol-7-yl)azetidin-1-yl]ethan-1-one], IC50 53 nM. Against it:
- COc1cc(C(=O)N2C[C@H]3CC[C@@H]2[C@@H]3N)cc2nc(-c3cc4cccc(C5CN(C(C)=O)C5)c4n3CC3CC3)n(C)c12 [Example 37, 1-(3-(2-(5-((1R,4R,7R)-7-amino-2-azabicyclo[2.2.1]heptane-2-carbonyl)-7-methoxy-1-methyl-1H-benzo[d]imidazol-2-yl)-1-(cyclopropylmethyl)-1H-indol-7-yl)azetidin-1-yl)ethan-1-one] — 2-fold lower, 26 nM
- COC(=O)N1CC(c2cccc3cc(-c4nc5cc(C(=O)N6C[C@H]7CC[C@@H]6[C@@H]7N)cc(OC)c5n4C)n(CC4CC4)c23)C1 [Example 40, Methyl 3-(2-(5-((1R,4R,7R)-7-amino-2-azabicyclo[2.2.1]heptane-2-carbonyl)-7-methoxy-1-methyl-1H-benzo[d]imidazol-2-yl)-1-(cyclopropylmethyl)-1H-indol-7-yl)azetidine-1-carboxylate] — 2.5-fold lower, 21 nM
- COc1cc(C(=O)N2C[C@H](N)CC[C@@H]2C)cc2nc(-c3cc4cccc(C5CN(C(C)=O)C5)c4n3CC3CC3)n(C)c12 [Example 42, 1-(3-(2-(5-((2S,5R)-5-amino-2-methylpiperidine-1-carbonyl)-7-methoxy-1-methyl-1H-benzo[d]imidazol-2-yl)-1-(cyclopropylmethyl)-1H-indol-7-yl)azetidin-1-yl)ethan-1-one] — 2.7-fold higher, 141 nM
- COc1cc(C(=O)N2C[C@H]3CC[C@@H]2[C@@H]3N)cc2nc(-c3cc4cccc(C5CC(NC(C)=O)C5)c4n3CC3CC3)n(C)c12 (stereo partly drawn) [Example 57, N-[3-(2-{5-[(1R,4R,7R)-7-amino-2-azabicyclo[2.2.1]heptane-2-carbonyl]-7-methoxy-1-methyl-1H-1,3-benzodiazol-2-yl}-1-(cyclopropylmethyl)-1H-indol-7-yl)cyclobutyl]acetamide] — 5.3-fold lower, 10 nM
- COc1cc(C(=O)N2C[C@H]3CC[C@@H]2[C@@H]3N)cc2nc(-c3cc4cccc(CCCC(=O)O)c4n3CC3CC3)n(C)c12 [Example 60, 4-(2-{5-[(1R,4R,7R)-7-amino-2-azabicyclo[2.2.1]heptane-2-carbonyl]-7-methoxy-1-methyl-1H-1,3-benzodiazol-2-yl}-1-(cyclopropylmethyl)-1H-indol-7-yl)butanoic Acid] — 2-fold higher, 108 nM
- COc1cc(C(=O)N2C[C@H]3CC[C@@H]2[C@@H]3N)cc2nc(-c3cc4cccc(C5CC6(CNC6)C5)c4n3CC3CC3)n(C)c12 [Example 61, (1R,4R,7R)-2-[2-(7-{2-azaspiro[3.3]heptan-6-yl}-1-(cyclopropylmethyl)-1H-indol-2-yl)-7-methoxy-1-methyl-1H-1,3-benzodiazole-5-carbonyl]-2-azabicyclo[2.2.1]heptan-7-amine] — 1.6-fold lower, 34 nM
- COc1cc(C(=O)N2C[C@H]3CC[C@@H]2[C@@H]3N)cc2nc(-c3cc4cccc(C5CC6(C5)CN(C(C)=O)C6)c4n3CC3CC3)n(C)c12 [Example 62, 1-[6-(2-{5-[(1R,4R,7R)-7-amino-2-azabicyclo[2.2.1]heptane-2-carbonyl]-7-methoxy-1-methyl-1H-1,3-benzodiazol-2-yl}-1-(cyclopropylmethyl)-1H-indol-7-yl)-2-azaspiro[3.3]heptan-2-yl]ethan-1-one] — 2.1-fold higher, 110 nM
- COc1cc(C(=O)N2C[C@H]3CC[C@@H]2[C@@H]3N)cc2nc(-c3cc4cccc(CC5CN(C(C)=O)C5)c4n3CC3CC3)n(C)c12 [Example 63, 1-{3-[(2-{5-[(1R,4R,7R)-7-amino-2-azabicyclo[2.2.1]heptane-2-carbonyl]-7-methoxy-1-methyl-1H-1,3-benzodiazol-2-yl}-1-(cyclopropylmethyl)-H-indol-7-yl)methyl]azetidin-1-yl}ethan-1-one] — within 1.5-fold, 62 nM
- COc1cc(C(=O)N2C[C@H]3CC[C@@H]2[C@@H]3N)cc2nc(-c3cc4cccc(C5CN(S(C)(=O)=O)C5)c4n3CC3CC3)n(C)c12 [Example 64, (1R,4R,7R)-2-{2-[1-(cyclopropylmethyl)-7-(1-methanesulfonylazetidin-3-yl)-1H-indol-2-yl]-7-methoxy-1-methyl-1H-1,3-benzodiazole-5-carbonyl}-2-azabicyclo[2.2.1]heptan-7-amine] — 1.7-fold lower, 31 nM
- COc1cc(C(=O)N2C[C@H]3CC[C@@H]2[C@@H]3N)cc2nc(-c3cc4cccc(C5CN(C(=O)CN)C5)c4n3CC3CC3)n(C)c12 [Example 65, 2-amino-1-[3-(2-{5-[(1R,4R,7R)-7-amino-2-azabicyclo[2.2.1]heptane-2-carbonyl]-7-methoxy-1-methyl-1H-1,3-benzodiazol-2-yl}-1-(cyclopropylmethyl)-1H-indol-7-yl)azetidin-1-yl]ethan-1-one] — 2.2-fold lower, 24 nM
